According to the supplement of paper PMC6045584:
± gives the standard deviation of the averaged measurements.

Columns and labels:
[1] = compound: CC(=O)NCC(=O)N1[C@@H]2CC[C@H]1c1ccc(Nc3ncc(C(F)(F)F)c(NC4CCC4)n3)cc12; experiment: surviving fraction relative to DMSO-only wells; higher = less growth inhibition; conditions: exposure time: 5 days
In short: (§1)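 Viability values are CellTiter-Glo luminescence readings, given as surviving fraction against the median of DMSO-only wells. The readings were taken after 10 minutes at room temperature, following five days of continuous exposure to inhibitors at 0.5, 1, 5, 10, 50, 100, 500 and 1000 nM that began 24 hours after log-phase tumour cell lines were seeded at 250–500 cells per well in 384-well plates. Every line was screened three times and kept only if replicate Pearson r >0.7 and median Z' >0.3.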

PACLITAXEL [2] = compound: T1, CC(=O)O[C@H]1C(=O)[C@@]2(C)[C@H]([C@H](OC(=O)c3ccccc3)[C@]3(O)C[C@H](OC(=O)[C@H](O)[C@@H](NC(=O)c4ccccc4)c4ccccc4)C(C)=C1C3(C)C)[C@]1(OC(C)=O)CO[C@@H]1C[C@@H]2O [PACLITAXEL]; experiment: as above; conditions: exposure time: 5 days
In short: as §1

[3] = compound: CC(=O)c1c(C)c2cnc(Nc3ccc(N4CCNCC4)cn3)nc2n(C2CCCC2)c1=O; experiment: as above; conditions: exposure time: 5 days
In short: as §1

CAMPTOTHECIN [4] = compound: T2, CC[C@@]1(O)C(=O)OCc2c1cc1n(c2=O)Cc2cc3ccccc3nc2-1 [CAMPTOTHECIN]; experiment: as above; conditions: exposure time: 5 days
In short: as §1

YM155 [5] = compound: T3, COCC[n+]1c2c(n(Cc3cnccn3)c1C)C(=O)c1ccccc1C2=O [YM155]; experiment: as above; conditions: exposure time: 5 days
In short: as §1

GEFITINIB = compound: COc1cc2ncnc(Nc3ccc(F)c(Cl)c3)c2cc1OCCCN1CCOCC1 [GEFITINIB]; experiment: as above; conditions: exposure time: 5 days
In short: as §1

OSI-906 = compound: C[C@]1(O)C[C@@H](c2nc(-c3ccc4ccc(-c5ccccc5)nc4c3)c3c(N)nccn32)C1 [OSI-906]; experiment: as above; conditions: exposure time: 5 days
In short: as §1

CELECOXIB [6] = compound: T4, Cc1ccc(-c2cc(C(F)(F)F)nn2-c2ccc(S(N)(=O)=O)cc2)cc1 [CELECOXIB]; experiment: as above; conditions: exposure time: 5 days
In short: as §1

CARBOPLATIN [7] = compound: T5, O=C(O)C1(C(=O)O)CCC1.[NH2-].[NH2-].[Pt+2] [CARBOPLATIN]; experiment: as above; conditions: exposure time: 5 days
In short: as §1

[8] = compound: CC(=O)NCC(=O)N1[C@@H]2CC[C@H]1c1ccc(Nc3ncc(C(F)(F)F)c(NC4CCC4)n3)cc12; experiment: area under dose-response curve of surviving fraction (unscaled, Aref=0) (surviving fraction x log10(nM)); higher = more resistant; conditions: exposure time: 5 days; dose range 0.5-1000 nM
In short: (§2)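 Tumour cell lines in 384-well plates were exposed for five days to eight inhibitor concentrations from 0.5 to 1000 nM. Viability was read by CellTiter-Glo luminescence, normalised to DMSO-only wells, in three screens per line. Dose-response survival curves were fitted to surviving fractions by 3-parameter logistic regression in the drc R package. Area under the curve is the unscaled activity area (Aref = 0) over log10 dose.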

PACLITAXEL [9] = compound: T1, PACLITAXEL; experiment: as above; conditions: exposure time: 5 days; dose range 0.5-1000 nM
In short: as §2

[10] = compound: CC(=O)c1c(C)c2cnc(Nc3ccc(N4CCNCC4)cn3)nc2n(C2CCCC2)c1=O; experiment: as above; conditions: exposure time: 5 days; dose range 0.5-1000 nM
In short: as §2

CAMPTOTHECIN [11] = compound: T2, CAMPTOTHECIN; experiment: as above; conditions: exposure time: 5 days; dose range 0.5-1000 nM
In short: as §2

YM155 [12] = compound: T3, YM155; experiment: as above; conditions: exposure time: 5 days; dose range 0.5-1000 nM
In short: as §2

CELECOXIB [13] = compound: T4, CELECOXIB; experiment: as above; conditions: exposure time: 5 days; dose range 0.5-1000 nM
In short: as §2

CARBOPLATIN [14] = compound: T5, CARBOPLATIN; experiment: as above; conditions: exposure time: 5 days; dose range 0.5-1000 nM
In short: as §2

Test System: SJSA1 BONE
- surviving fraction ([1]; 0.5 nM): 1.06 ± 0.086
- surviving fraction ([1]; 1 nM): 1.08 ± 0.061
- surviving fraction ([1]; 5 nM): 1.08 ± 0.047
- surviving fraction ([1]; 10 nM): 1.03 ± 0.016
- surviving fraction ([1]; 50 nM): 1.07 ± 0.026
- surviving fraction ([1]; 100 nM): 0.95 ± 0.019
- surviving fraction ([1]; 500 nM): 0.6 ± 0.013
- surviving fraction ([1]; 1000 nM): 0.531 ± 0.014
- surviving fraction (PACLITAXEL [2]; 0.5 nM): 0.942 ± 0.048
- surviving fraction (PACLITAXEL [2]; 1 nM): 0.833 ± 0.041
- surviving fraction (PACLITAXEL [2]; 5 nM): 0.342 ± 0.0057
- surviving fraction (PACLITAXEL [2]; 10 nM): 0.18 ± 0.013
- surviving fraction (PACLITAXEL [2]; 50 nM): 0.135 ± 0.0021
- surviving fraction (PACLITAXEL [2]; 100 nM): 0.113 ± 0.0021
- surviving fraction (PACLITAXEL [2]; 500 nM): 0.107 ± 0.01
- surviving fraction (PACLITAXEL [2]; 1000 nM): 0.114 ± 0.017
- surviving fraction ([3]; 0.5 nM): 1 ± 0.037
- surviving fraction ([3]; 1 nM): 1.01 ± 0.099
- surviving fraction ([3]; 5 nM): 1.028 ± 0.0059
- surviving fraction ([3]; 10 nM): 1.04 ± 0.049
- surviving fraction ([3]; 50 nM): 1.08 ± 0.028
- surviving fraction ([3]; 100 nM): 1.12 ± 0.013
- surviving fraction ([3]; 500 nM): 0.922 ± 0.037
- surviving fraction ([3]; 1000 nM): 0.88 ± 0.036
- surviving fraction (CAMPTOTHECIN [4]; 0.5 nM): 1.18 ± 0.043
- surviving fraction (CAMPTOTHECIN [4]; 1 nM): 1.2 ± 0.06
- surviving fraction (CAMPTOTHECIN [4]; 5 nM): 1.01 ± 0.15
- surviving fraction (CAMPTOTHECIN [4]; 10 nM): 1.2 ± 0.017
- surviving fraction (CAMPTOTHECIN [4]; 50 nM): 1.25 ± 0.084
- surviving fraction (CAMPTOTHECIN [4]; 100 nM): 1.11 ± 0.093
- surviving fraction (CAMPTOTHECIN [4]; 500 nM): 1.14 ± 0.24
- surviving fraction (CAMPTOTHECIN [4]; 1000 nM): 1.18 ± 0.083
- surviving fraction (YM155 [5]; 0.5 nM): 1 ± 0.059
- surviving fraction (YM155 [5]; 1 nM): 1.6 ± 0.045
- surviving fraction (YM155 [5]; 5 nM): 1.46 ± 0.018
- surviving fraction (YM155 [5]; 10 nM): 1.59 ± 0.028
- surviving fraction (YM155 [5]; 50 nM): 1.7 ± 0.11
- surviving fraction (YM155 [5]; 100 nM): 1.7 ± 0.074
- surviving fraction (YM155 [5]; 500 nM): 1.6 ± 0.15
- surviving fraction (YM155 [5]; 1000 nM): 1.53 ± 0.16
- surviving fraction (GEFITINIB; 0.5 nM): 1.15 ± 0.059
- surviving fraction (GEFITINIB; 1 nM): 1.59 ± 0.071
- surviving fraction (GEFITINIB; 5 nM): 1.62 ± 0.018
- surviving fraction (GEFITINIB; 10 nM): 0.602 ± 0.04
- surviving fraction (GEFITINIB; 50 nM): 1.8 ± 0.065
- surviving fraction (GEFITINIB; 100 nM): 1.67 ± 0.033
- surviving fraction (GEFITINIB; 500 nM): 1.68 ± 0.052
- surviving fraction (GEFITINIB; 1000 nM): 1.68 ± 0.018
- surviving fraction (OSI-906; 0.5 nM): 1.23 ± 0.051
- surviving fraction (OSI-906; 1 nM): 1.22 ± 0.075
- surviving fraction (OSI-906; 5 nM): 1.17 ± 0.2
- surviving fraction (OSI-906; 10 nM): 1.21 ± 0.11
- surviving fraction (OSI-906; 50 nM): 0.917 ± 0.21
- surviving fraction (OSI-906; 100 nM): 1.62 ± 0.052
- surviving fraction (OSI-906; 500 nM): 0.785 ± 0.31
- surviving fraction (OSI-906; 1000 nM): 0.388 ± 0.031
- surviving fraction (CELECOXIB [6]; 0.5 nM): 1.15 ± 0.061
- surviving fraction (CELECOXIB [6]; 1 nM): 1.68 ± 0.074
- surviving fraction (CELECOXIB [6]; 5 nM): 1.6 ± 0.048
- surviving fraction (CELECOXIB [6]; 10 nM): 1.54 ± 0.045
- surviving fraction (CELECOXIB [6]; 50 nM): 1.71 ± 0.07
- surviving fraction (CELECOXIB [6]; 100 nM): 1.81 ± 0.054
- surviving fraction (CELECOXIB [6]; 500 nM): 1.65 ± 0.039
- surviving fraction (CELECOXIB [6]; 1000 nM): 1.85 ± 0.11
- surviving fraction (CARBOPLATIN [7]; 0.5 nM): 1.68 ± 0.11
- surviving fraction (CARBOPLATIN [7]; 1 nM): 1.73 ± 0.089
- surviving fraction (CARBOPLATIN [7]; 5 nM): 1.56 ± 0.12
- surviving fraction (CARBOPLATIN [7]; 10 nM): 1.64 ± 0.17
- surviving fraction (CARBOPLATIN [7]; 50 nM): 0.869 ± 0.07
- surviving fraction (CARBOPLATIN [7]; 100 nM): 1.376 ± 0.0032
- surviving fraction (CARBOPLATIN [7]; 500 nM): 1.54 ± 0.088
- surviving fraction (CARBOPLATIN [7]; 1000 nM): 1.16 ± 0.17
- area under dose-response curve [8]: 3.02
- area under dose-response curve (PACLITAXEL [9]): 1.01
- area under dose-response curve [10]: 3.43
- area under dose-response curve (CAMPTOTHECIN [11]): 3.83
- area under dose-response curve (YM155 [12]): 5.19
- area under dose-response curve (CELECOXIB [13]): 5.36
- area under dose-response curve (CARBOPLATIN [14]): 4.73
